Laboratory results as given in US7078195B2, “Antibiotics AA-896” (Wyeth Holdings Corporation, priority 2001, dated 2006).
Converted amounts (≈) assume the structure as drawn.

Experiments:
Assay in all cases: Broth dilution MIC
Type in all cases: cell-based
CNS GC 4537 = details: Mueller-Hinton broth, 18 hours at 35° C.; for MIC: read-out: Antimicrobial Activity (MIC)
Description: (§1) The in vitro antibacterial activity of AA-896-A1, AA-896-A2, AA-896-A3, AA-896-A4, AA-896-A5, AA-896-B1, AA-896-B2, AA-896-B3, AA-896-B4, AA-896-B5, AA-896-B6, AA-896-B7, AA-896-C1, AA-896-C2, AA-896-C3, AA-896-C4, AA-896-D1, AA896-D2 and AA-896-D3 is determined against a spectrum of Gram-positive and Gram-negative bacteria by a standard broth dilution method. Serial dilution of the compounds are made in Mueller-Hinton broth and inoculated with a bacterial suspension. The lowest concentration of compound that inhibited the growth of a bacterial strain after 18 hours of incubation at 35° C. is reported as the minimal inhibitory concentration (MIC) for that strain.

P. rettgeri GC 4530 = details: 18 hours at 35° C.; for MIC: Providencia rettgeri, GC4530, Mueller-Hinton broth, read-out: Antimicrobial Activity (MIC)
Description: as §1

E. faecalis GC 2242 = details: 18 hours at 35° C.; for MIC: Enterococcus faecalis, GC2242, Mueller-Hinton broth, read-out: Antimicrobial Activity (MIC)
Description: as §1

E. coli GC 4559 = details: 18 hours at 35° C.; for MIC: Escherichia coli, GC4559, Mueller-Hinton broth, read-out: Antimicrobial Activity (MIC)
Description: as §1

CNS GC 4538 = details: Mueller-Hinton broth, 18 hours at 35° C.; for MIC: read-out: Antimicrobial Activity (MIC)
Description: as §1

E. coli GC 3226 = details: 18 hours at 35° C.; for MIC: Escherichia coli, GC3226, Mueller-Hinton broth, read-out: Antimicrobial Activity (MIC)
Description: as §1

E. faecalis GC 842 = details: 18 hours at 35° C.; for MIC: Enterococcus faecalis, GC842, Mueller-Hinton broth, read-out: Antimicrobial Activity (MIC)
Description: as §1

P. aeruginosa GC 2214 = details: 18 hours at 35° C.; for MIC: Pseudomonas aeruginosa, GC2214, Mueller-Hinton broth, read-out: Antimicrobial Activity (MIC)
Description: as §1

K. pneumoniae GC 4534 = details: 18 hours at 35° C.; for MIC: Klebsiella pneumoniae, GC4534, Mueller-Hinton broth, read-out: Antimicrobial Activity (MIC)
Description: as §1

P. aeruginosa GC 4532 = details: 18 hours at 35° C.; for MIC: Pseudomonas aeruginosa, GC4532, Mueller-Hinton broth, read-out: Antimicrobial Activity (MIC)
Description: as §1

M. morganii GC 4531 = details: 18 hours at 35° C.; for MIC: Morganella morganii, GC4531, Mueller-Hinton broth, read-out: Antimicrobial Activity (MIC)
Description: as §1

CNS GC 4547 = details: Mueller-Hinton broth, 18 hours at 35° C.; for MIC: read-out: Antimicrobial Activity (MIC)
Description: as §1

S. marcescens GC 4077 = details: 18 hours at 35° C.; for MIC: Serratia marcescens, GC4077, Mueller-Hinton broth, read-out: Antimicrobial Activity (MIC)
Description: as §1

E. coli GC 4560 = details: 18 hours at 35° C.; for MIC: Escherichia coli, GC4560, Mueller-Hinton broth, read-out: Antimicrobial Activity (MIC)
Description: as §1

S. aureus GC 2216 = details: 18 hours at 35° C.; for MIC: Staphylococcus aureus, GC2216, Mueller-Hinton broth, read-out: Antimicrobial Activity (MIC)
Description: as §1

S. aureus GC 1131 = details: 18 hours at 35° C.; for MIC: Staphylococcus aureus, GC1131, Mueller-Hinton broth, read-out: Antimicrobial Activity (MIC)
Description: as §1

E. coli GC 2203 = details: 18 hours at 35° C.; for MIC: Escherichia coli, GC2203, Mueller-Hinton broth, read-out: Antimicrobial Activity (MIC)
Description: as §1

E. faecalis GC 4555 = details: 18 hours at 35° C.; for MIC: Enterococcus faecalis, GC4555, Mueller-Hinton broth, read-out: Antimicrobial Activity (MIC)
Description: as §1

E. cloacae GC 3783 = details: 18 hours at 35° C.; for MIC: Enterobacter cloacae, GC3783, Mueller-Hinton broth, read-out: Antimicrobial Activity (MIC)
Description: as §1

S. aureus GC 4536 = details: 18 hours at 35° C.; for MIC: Staphylococcus aureus, GC4536, Mueller-Hinton broth, read-out: Antimicrobial Activity (MIC)
Description: as §1

SMILES | MIC (CNS GC 4537) | MIC (P. rettgeri GC 4530) | MIC (E. faecalis GC 2242) | MIC (E. coli GC 4559) | MIC (CNS GC 4538) | MIC (E. coli GC 3226) | MIC (E. faecalis GC 842) | MIC (P. aeruginosa GC 2214) | MIC (K. pneumoniae GC 4534) | MIC (P. aeruginosa GC 4532) | MIC (M. morganii GC 4531) | MIC (CNS GC 4547) | MIC (S. marcescens GC 4077) | MIC (E. coli GC 4560) | MIC (S. aureus GC 2216) | MIC (S. aureus GC 1131) | MIC (E. coli GC 2203) | MIC (E. faecalis GC 4555) | MIC (E. cloacae GC 3783) | MIC (S. aureus GC 4536) | further results
CC(C)C(NC(=O)NC(C(=O)NC(C(=O)NCCCNC(C(=O)O)C(O)C1OC(n2ccc(=O)[nH]c2=O)C(O)C1O)C(OC(=O)CCCCCCCCCCCCN(O)C(=N)N)C(C)C)C1CCNC(=N)N1)C(=O)O [AA-896-A5, 6-[[3-[3-[[13-(Carbamimidoylhydroxyamino)tridecanoyl]oxy]-2-[2-[[(1-carboxy-2-methyl-propyl)carbamoyl]amino]-2-(hexahydro-2-iminopyrimidin-4-yl)acetamido]-4-methyl-pentanamido]propyl]amino]-1,6-dideoxy-1-(3,4-dihydro-2,4-dioxopyrimidin-1(2H)-yl)-β-D-heptofuranuronic acid] | 16 µg/mL (≈ 15 µM) | > 64 µg/mL | > 64 µg/mL | 4 µg/mL (≈ 3.74 µM) | 4 µg/mL (≈ 3.74 µM) | 16 µg/mL (≈ 15 µM) | > 64 µg/mL | 32 µg/mL (≈ 29.9 µM) | 8 µg/mL (≈ 7.48 µM) | 32 µg/mL (≈ 29.9 µM) | > 64 µg/mL | 16 µg/mL (≈ 15 µM) | > 64 µg/mL | ≤ 0.06 µg/mL | 16 µg/mL (≈ 15 µM) | 16 µg/mL (≈ 15 µM) | 16 µg/mL (≈ 15 µM) | 32 µg/mL (≈ 29.9 µM) | 1 µg/mL (≈ 0.934 µM) | 8 µg/mL (≈ 7.48 µM) | 
CC(C)C(NC(=O)NC(C(=O)NC(C(=O)NCCCNC(C(=O)O)C(O)C1OC(n2ccc(=O)[nH]c2=O)C(O)C1O)C(O)C(C)C)C1CCNC(=N)N1)C(=O)O [AA-896-C4, 6-[[3-[2-[2-[[(1-Carboxy-2-methylpropyl)carbamoyl]amino]-2-(hexahydro-2-iminopyrimidin-4-yl)acetamido]-3-hydroxy-4-methylpentanamido]propyl]amino]-1,6-dideoxy-1-(3,4-dihydro-2,4-dioxopyrimidin-1(2H)-yl)-β-D-heptofuranuronic acid] | > 32 µg/mL | > 32 µg/mL | > 32 µg/mL | > 32 µg/mL | > 32 µg/mL | > 32 µg/mL | > 32 µg/mL | 32 µg/mL (≈ 40 µM) | > 32 µg/mL | 32 µg/mL (≈ 40 µM) | > 32 µg/mL | > 32 µg/mL | > 32 µg/mL | 4 µg/mL (≈ 4.99 µM) | > 32 µg/mL | > 32 µg/mL | > 32 µg/mL | > 32 µg/mL | > 32 µg/mL | > 32 µg/mL | 
COC1C(OC(C(NCCCNC(=O)C(NC(=O)C(NC(=O)NC(C(=O)O)C(C)C)C2CCNC(=N)N2)C(OC(=O)CCCCC(C)C)C(C)C)C(=O)O)C2OC(n3ccc(=O)[nH]c3=O)C(O)C2O)OC(CN)C1O [AA-896-B6, 5-O-[5-Amino-5-deoxy-2-O-methyl-β-D-ribofuranosyl]-6-[[3-[2-[2-[[(1-carboxy-2-methyl-propyl)carbamoyl]amino]-2-(hexahydro-2-iminopyrimidin-4-yl)acetamido]-4-methyl-3-[(6-methylheptanoyl)oxy]pentanamido]propyl]amino]-1,6-dideoxy-1-(3,4-dihydro-2,4-dioxopyrimidin-1(2H)-yl)-β-D-heptofuranuronic acid] |  |  |  |  |  |  |  |  |  |  |  |  |  |  |  |  |  |  |  |  | Antimicrobial Activity (MIC) (CNS GC 4537): >64 µg/mL; Antimicrobial Activity (MIC) (P. rettgeri GC 4530; Mueller-Hinton broth): >64 µg/mL; Antimicrobial Activity (MIC) (E. faecalis GC 2242; Mueller-Hinton broth): >64 µg/mL; Antimicrobial Activity (MIC) (E. coli GC 4559; Mueller-Hinton broth): 32 µg/mL; Antimicrobial Activity (MIC) (CNS GC 4538): 64 µg/mL; Antimicrobial Activity (MIC) (E. coli GC 3226; Mueller-Hinton broth): 64 µg/mL; Antimicrobial Activity (MIC) (E. faecalis GC 842; Mueller-Hinton broth): >64 µg/mL; Antimicrobial Activity (MIC) (P. aeruginosa GC 2214; Mueller-Hinton broth): 64 µg/mL; Antimicrobial Activity (MIC) (K. pneumoniae GC 4534; Mueller-Hinton broth): 32 µg/mL; Antimicrobial Activity (MIC) (P. aeruginosa GC 4532; Mueller-Hinton broth): >64 µg/mL; Antimicrobial Activity (MIC) (M. morganii GC 4531; Mueller-Hinton broth): >64 µg/mL; Antimicrobial Activity (MIC) (CNS GC 4547): >64 µg/mL; Antimicrobial Activity (MIC) (S. marcescens GC 4077; Mueller-Hinton broth): >64 µg/mL; Antimicrobial Activity (MIC) (E. coli GC 4560; Mueller-Hinton broth): <=0.06 μg/ml; Antimicrobial Activity (MIC) (S. aureus GC 2216; Mueller-Hinton broth): >64 µg/mL; Antimicrobial Activity (MIC) (S. aureus GC 1131; Mueller-Hinton broth): >64 µg/mL; Antimicrobial Activity (MIC) (E. coli GC 2203; Mueller-Hinton broth): 64 µg/mL; Antimicrobial Activity (MIC) (E. faecalis GC 4555; Mueller-Hinton broth): >64 µg/mL; Antimicrobial Activity (MIC) (E. cloacae GC 3783; Mueller-Hinton broth): 8 µg/mL; Antimicrobial Activity (MIC) (S. aureus GC 4536; Mueller-Hinton broth): >64 µg/mL
